# In patent US5292760A, “4-heteroaryl-1,3-benzodiazepines and 2-substituted-α-(heteroaryl)benzeneethanamines” (Hoechst-Roussel Pharmaceuticals Inc., priority 1992, dated 1994):
# Counter-ions that a name gives are not always drawn. Like-named read-outs stand apart in the source and are kept apart here.
# What was measured:
# [1] = tested on: Geller Conflict Paradigm in Rats; test: Geller Conflict Paradigm in Rats (anxiolytic activity); assay type: in vivo
# Description: The intraperitoneal (i.p.) dosages at which the following compounds show anxiolytic activity are: […]
# [2] = tested on: tetrabenazine induced ptosis; test: tetrabenazine induced ptosis assay in mice (antidepressant activity); assay type: in vivo; settings: Mus musculus, ip, read-out: Anti-Depressant Activity ED50
# [3] = tested on: N-methyl-D-aspartic acid (NMDA)-induced seizures; test: N-Methyl-D,L-Aspartic Acid Induced Seizure Assay (NMDA protection); assay type: in vivo, male Swiss Webster mice; settings: Mus musculus, 0.5 h; ip; N-methyl-D,L-aspartic acid 350 mg/kg, sc; total absence of clonic seizures during 30 minutes
# Protocol: In this assay, male Swiss Webster mice (Charles River), 18-25 grams are used. Animals are ordered at 33 to 36 days of age and can be used for 8 days after arrival. They are housed for at least 24 hours in a climate controlled animal colony with food and water available ad libitum. On the day of testing, animals are brought to the laboratory and randomly assigned to groups. N-Methyl-D,L-aspartic acid (350 mg) is dissolved in 10 ml of saline and mixed thoroughly with a homogenizer for 1-2 minutes. Test compounds are prepared in distilled water and, if insoluable, a suitable surfactant is added. For a primary screen the test compound is administered at 60 mg/kg, ip (10 ml/kg), to groups of ten mice, 30 minutes prior to challenge with N-methyl-D,L-aspartic acid (350 mg/kg, sc). After N-Methyl-D,L-aspartic acid administration animals are placed individually in clear plastic cyclinders (12"×5.5"×1/4") and then observed for clonic seizures. N-methyl-D,L-aspartic acid will produce clonic seizures, and sometimes tonic seizures and death, in vehicle control animals.
# A clonic convulsion is defined as a single episode of clonic spasms of a least a 3 second duration. A tonic seizure is defined as a brief period of hindlimb flexion followed by a prolonged period of hindlimb extension. The mice treated with N-methyl-D,L-aspartic acid are considered "protected" when there is a total absence of clonic seizures during the 30 minute observation period.
# Test compounds are run at the time of peak effect. Three or more doses are used (10 animals per group).
# Data is calculated by the method of J. T. Litchfield, Jr. and F. Wilcoxon. A test should be repeated if 40% of vehicle control animals are protected. The normalized percent formula is used when 10-30% of the vehicle control animals are protected.
# The normalized percent protection is calculated using the following formula: […]
# [4] = tested on: supramaximal electroshock (SES); test: supramaximal electroshock (SES) assay (anticonvulsant activity); assay type: in vivo, male mouse; settings: Mus musculus, ip, read-out: Anticonvulsant Activity ED50
# Protocol: The Formula III compounds of this invention are useful as anticonvulsants due to their anticonvulsant activity in mammals. Anticonvulsant activity is measured in the male mouse using the supramaximal electroshock (SES) assay described in Arch. Int. Pharmacodyn. 92: 97-107, 1952. Intraperitoneal doses of representative compounds of the invention and their ability to protect from the effect of SES is shown below in Table 2. ED50 values, i.e., the doses at which, within 95% confidence intervals, 50% of the animals are protected are calculated by computerized probit analysis.
# [5] = 50% inhibition of ptosis of tetrabenazine-induced depression in mice
smiles,measurement,setting,value
"CN1C(=O)CN=C(c2ccccc2)c2cc(Cl)ccc21 [Diazepam, reference compound]","Anti-Conflict Response, % Change Compared to Control",[1]; dose 10 m.g./kg i.p.,+180%
same,"Anti-Conflict Response, % Change Compared to Control",[1]; dose 15 m.g./kg i.p.,+453%
same,"Anti-Conflict Response, % Change Compared to Control",[1]; dose 20 m.g./kg i.p.,+630%
"CC1=Nc2ccccc2CC(c2ccc(C)s2)N1C (stereo not shown) [4,5-Dihydro-2,3-dimethyl-4-(5-methyl-2-thienyl)-3H-1,3-benzodiazepine]",ED50,[2],12.2 mg/kg
"CCC1=Nc2ccccc2CC(c2ccncc2)N1C (stereo not shown) [4,5-Dihydro-2-ethyl-3-methyl-4-(4-pyridinyl)-3H-1,3-benzodiazepine hemihydrate]",ED50,[2],6.8 mg/kg
CCNC(Cc1ccccc1N)c1sccc1C.Cl.Cl (stereo not drawn) [2-Amino-N-ethyl-α-(3-methyl-2-thienyl)benzeneethanamine dihydrochloride],"Anti-Conflict Response, % Change Compared to Control",[1]; dose 1 m.g./kg i.p.,+100%
same,"Anti-Conflict Response, % Change Compared to Control",[1]; dose 5 m.g./kg i.p.,+70%
"NC(CCCP(=O)(O)O)C(=O)O (stereo not shown) [2-Amino-5-phosphonovaleric acid, reference compound]",ED50,[3],48.5 mg/kg
"CCC1=Nc2ccccc2CC(c2cccs2)N1C.Cl (stereo not shown) [4,5-Dihydro-2-ethyl-3-methyl-4-(2-thienyl)-3H-1,3-benzodiazepine hydrochloride]",ED50,[2]; [5],4.7 mg/kg
"CCC1=Nc2ccccc2CC(c2sccc2C)N1C.Cl.O (stereo not shown) [4,5-Dihydro-2-ethyl-3-methyl-4-(3-methyl-2-thienyl)-3H-1,3-benzodiazepine hydrochloride monohydrate]",ED50,[2]; [5],5.3 mg/kg
"CCC1=Nc2ccccc2CC(c2ccsc2)N1C.Cl (stereo not shown) [4,5-Dihydro-2-ethyl-3-methyl-4-(3-thienyl)-3H-1,3-benzodiazepine hydrochloride]",ED50,[2]; [5],8.7 mg/kg
CNC(Cc1cc(Br)ccc1N)c1sccc1C (stereo not drawn) [2-Amino-5-bromo-N-methyl-α-(3-methyl-2-thienyl)benzeneethaneamine],ED50,[4],9.2 mg/kg
CNC(Cc1ccccc1N)c1cccs1 (stereo not drawn) [2-Amino-N-methyl-α-(2-thienyl)benzeneethanamine dihydrochloride hemihydrate],ED50,[4],30.4 mg/kg
CNC(Cc1ccccc1N)c1sccc1C (stereo not drawn) [2-Amino-N-methyl-α-(3-methyl-2-thienyl)benzeneethanamine],ED50,[4],4.6 mg/kg
same,"Anti-Conflict Response, % Change Compared to Control",[1]; dose 20 m.g./kg i.p.,+807%
same,"Anti-Conflict Response, % Change Compared to Control",[1]; dose 40 m.g./kg i.p.,+547%
same,"Anti-Conflict Response, % Change Compared to Control",[1]; dose 60 m.g./kg i.p.,+242%
same,ED50,[3],26.7 mg/kg
Cc1ccsc1C(N)Cc1ccccc1N.Cl.Cl (stereo not drawn) [2-Amino-α-(3-methyl-2-thienyl)benzeneethanamine dihydrochloride],ED50,[3],19 mg/kg
CNC(Cc1ccc(C(F)(F)F)cc1N)c1sccc1C (stereo not drawn) [2-Amino-N-methyl-α-(3-methyl-2-thienyl)-4-trifluoromethylbenzeneethanamine],ED50,[3],26.4 mg/kg
"CN(C)CCC=C1c2ccccc2COc2ccccc21 [Doxepin, reference compound]",ED50,[2]; [5],3.8 mg/kg
"O=C1NC(=O)C(c2ccccc2)(c2ccccc2)N1 [Diphenylhydantoin, reference compound]",ED50,"[4]; dose protecting 50% of the animals, 95% confidence, probit analysis",3.9 mg/kg
